Experimental data from the supplement of paper PMC11061612.

Tests used:
[1] = test system: 23132-87 (Gastric Carcinoma); experiment: combination Emax (second highest fraction inhibited in the dose matrix, 72 h); higher = more inhibition; extreme values may be limits of the assay
Summary of the method: (§1)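 After 24 hours at 37°C and 5% CO2 in 1536-well plates, cells in DMEM/F12 or RPMI plus 10% FBS received two-drug dose matrices for 72 hours. Viability came from CellTiter-Glo 2.0 luminescence and was scaled as inhibition, anchored at 0 by vehicle wells and at 1 by blank wells. Combination Emax is taken as the second-highest inhibition in the matrix, and Bliss excess as the observed combination effect less EA + EB − EA·EB, with EA and EB the single-agent effects.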

[2] = test system: PC-3_[JPC-3] (Lung Adenocarcinoma); experiment: as above
Summary of the method: as §1

[3] = test system: CAL-120 (Breast Carcinoma); experiment: as above
Summary of the method: as §1

[4] = test system: COLO-680N (Esophageal Squamous Cell Carcinoma); experiment: Bliss excess, mean over the matrix (fraction); higher = more synergy
Summary of the method: as §1

[5] = test system: SK-PN-DW (Other Solid Carcinomas); experiment: as above
Summary of the method: as §1

[6] = test system: PC-3_[JPC-3] (Lung Adenocarcinoma); experiment: as above
Summary of the method: as §1

[7] = test system: OPM-2 (Plasma Cell Myeloma); experiment: as above
Summary of the method: as §1

[8] = test system: OAW-42 (Ovarian Carcinoma); experiment: as above
Summary of the method: as §1

WM793B (Melanoma) = experiment: as above
Summary of the method: as §1

[9] = test system: HSC-39 (Gastric Carcinoma); experiment: as above
Summary of the method: as §1

[10] = test system: REH (B-Lymphoblastic Leukemia); experiment: as above
Summary of the method: as §1

[11] = test system: CAL-120 (Breast Carcinoma); experiment: as above
Summary of the method: as §1

[12] = test system: LB996-RCC (Kidney Carcinoma); experiment: as above
Summary of the method: as §1

[13] = test system: SU-DHL-10 (B-Cell Non-Hodgkin's Lymphoma); experiment: as above
Summary of the method: as §1

[14] = test system: PANC-03-27 (Pancreatic Carcinoma); experiment: as above
Summary of the method: as §1

[15] = test system: KE-37 (T-Lymphoblastic Leukemia); experiment: as above
Summary of the method: as §1

LN-229 (Glioblastoma) = experiment: as above
Summary of the method: as §1

[16] = test system: HEC-1 (Endometrial Carcinoma); experiment: as above
Summary of the method: as §1

SF268 (Low Grade Glioma) = experiment: as above
Summary of the method: as §1

[17] = test system: FADU (Head and Neck Carcinoma); experiment: as above
Summary of the method: as §1
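Throughout, for Bliss excess, mean over the matrix: after 72 h of two-drug dosing.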

SMILES	combination Emax [1]	combination Emax [2]	combination Emax [3]	Bliss excess [4]	Bliss excess [5]	Bliss excess [6]	Bliss excess [7]	Bliss excess [8]	Bliss excess (WM793B (Melanoma))	Bliss excess [9]	Bliss excess [10]	Bliss excess [11]	Bliss excess [12]	Bliss excess [13]	Bliss excess [14]	Bliss excess [15]	Bliss excess (LN-229 (Glioblastoma))	Bliss excess [16]	Bliss excess (SF268 (Low Grade Glioma))	Bliss excess [17]
NC1(C(=O)N[C@@H](CCO)c2ccc(Cl)cc2)CCN(c2ncnc3[nH]ccc23)CC1 [Capivasertib] + COc1nnc2ccc(N3CCC(c4ccc(OCCN5CCN(C)C(=O)[C@H]5C)cc4)CC3)nn12 [AZD5153] (first compound max 10 µM, 7x7, partner max 1 µM)	0.659	0.349	0.647	0.0355	-0.0003	-0.0186	-0.0129	0.0972	-0.0115	0.0142	0.0272	0.101	0.0131	-0.027	-0.007	-0.045	-0.0313	0.0143	0.0881	0.032
NC1(C(=O)N[C@@H](CCO)c2ccc(Cl)cc2)CCN(c2ncnc3[nH]ccc23)CC1 [Capivasertib] + C[C@@H]1COCCN1C2=NC(=NC(=C2)C3(CC3)[S@](=N)(=O)C)C4=C5C=CNC5=NC=C4 [AZD6738] (first compound max 10 µM, 7x7, partner max 10 µM)	0.616	0.441	0.708	-0.0158	-0.0412	-0.0356	-0.0746	0.0034	-0.0919	-0.0181	-0.0859	-0.0283	-0.0418	-0.0359	-0.0537	-0.0061	-0.0405	-0.0205	-0.0617	0.0096
NC1(C(=O)N[C@@H](CCO)c2ccc(Cl)cc2)CCN(c2ncnc3[nH]ccc23)CC1 [Capivasertib] + Cn1cnc2c(F)c(Nc3ccc(Br)cc3Cl)c(C(=O)NOCCO)cc21 [Selumetinib] (first compound max 10 µM, 7x7, partner max 10 µM)	0.396	0.382	0.444	0.028	0.032	0.0268	0.0515	0.0028	0.0402	0.2	-0.005	0.0219	0.0146	0.0269	0.0728	0.0803	0.0437	0.0234	-0.0651	-0.0297
Cc1nc(Nc2ncc(C(=O)Nc3c(C)cccc3Cl)s2)cc(N2CCN(CCO)CC2)n1 [Dasatinib] + CC(=O)Nc1cccc(-n2c(=O)n(C3CC3)c(=O)c3c(Nc4ccc(I)cc4F)n(C)c(=O)c(C)c32)c1 [Trametinib] (first compound max 2 µM, 7x7, partner max 1 µM)	0.315	0.738	0.525	0.0389	-0.0292	-0.0708	0.0108	0.0199	-0.0015	-0.0706	-0.0421	0.032	-0.0527	0.0745	0.0178	-0.0125	-0.0025	0.0095	-0.073	-0.0972
COc1cc2ncnc(Nc3ccc(F)c(Cl)c3)c2cc1OCCCN1CCOCC1 [Gefitinib] + CC(C)n1c(=O)n(C)c2cnc3cc(F)c(-c4ccc(OCCCN5CCCCC5)nc4)cc3c21 [AZD1390] (first compound max 10 µM, 7x7, partner max 0.3 µM)	0.127	0.67	0.14	-0.0252	-0.0293	-0.03	-0.0151	-0.0384	-0.0816	0.0185	-0.0498	-0.0446	-0.0069	-0.0254	-0.0223	-0.0791	-0.077	-0.0442	-0.0727	-0.0619
CS(=O)(=O)CCNCc1ccc(-c2ccc3ncnc(Nc4ccc(OCc5cccc(F)c5)c(Cl)c4)c3c2)o1 [Lapatinib] + C[C@@H](Oc1cc(-c2cnn(C3CCNCC3)c2)cnc1N)c1c(Cl)ccc(F)c1Cl [Crizotinib] (first compound max 10 µM, 7x7, partner max 10 µM)	0.594	0.922	0.734	-0.017	-0.0722	-0.0824	-0.0611	-0.0033	-0.0192	-0.0117	-0.0347	0.0084	-0.0196	-0.0087	-0.0111	0.0236	-0.0396	-0.021	-0.056	-0.0302
CC(=O)c1c(C)c2cnc(Nc3ccc(N4CCNCC4)cn3)nc2n(C2CCCC2)c1=O [Palbociclib] + CC1(C)CCC(CN2CCN(c3ccc(C(=O)NS(=O)(=O)c4ccc(NCC5CCOCC5)c([N+](=O)[O-])c4)c(Oc4cnc5[nH]ccc5c4)c3)CC2)=C(c2ccc(Cl)cc2)C1 [Venetoclax] (first compound max 10 µM, 7x7, partner max 1 µM)	0.17	0.176	0.134	-0.0445	-0.0063	-0.0487	0.017	-0.0365	0.0241	-0.0476	-0.0446	-0.0523	0.0044	-0.0873	-0.0545	0.0258	-0.0652	-0.0489	-0.0344	-0.0596
CC(=O)c1c(C)c2cnc(Nc3ccc(N4CCNCC4)cn3)nc2n(C2CCCC2)c1=O [Palbociclib] + Cc1c2c(nn1C)CSCc1cc(n(C)n1)CSc1cc(c3ccccc3c1)OCCCc1c(C(=O)O)n(C)c3c-2c(Cl)ccc13 [AZD5991] (first compound max 10 µM, 7x7, partner max 1 µM)	0.305	0.241	0.134	-0.0341	-0.0194	-0.0377	0.0009	0.0143	-0.0134	-0.0383	-0.0213	-0.0209	-0.0238	-0.0199	-0.0242	0.0783	-0.057	-0.0336	0.0193	-0.126
CC(=O)c1c(C)c2cnc(Nc3ccc(N4CCNCC4)cn3)nc2n(C2CCCC2)c1=O [Palbociclib] + Cn1cnc2c(F)c(Nc3ccc(Br)cc3Cl)c(C(=O)NOCCO)cc21 [Selumetinib] (first compound max 10 µM, 7x7, partner max 10 µM)	0.128	0.29	0.186	-0.0207	-0.0164	-0.0288	0.0343	-0.0555	-0.0173	-0.0069	-0.0229	-0.0361	-0.0426	0.0392	-0.0015	0.0207	0.001	-0.0391	-0.0269	0.115
COc1cccc(OCCCN)c1-c1cc(Nc2cnc(C#N)cn2)n[nH]1 [Prexasertib] + CCc1c2c(nc3ccc(O)cc13)-c1cc3c(c(=O)n1C2)COC(=O)[C@]3(O)CC [SN-38] (first compound max 1 µM, 7x7, partner max 0.3 µM)	0.898	0.802	0.85	0.0609	-0.0672	-0.0729	-0.0125	-0.0263	-0.0489	0.0026	-0.0054	0.0574	-0.0334	0.035	-0.0381	-0.0182	-0.022	0.0893	0.0097	-0.0233
C[C@@H](c1ccc2nccn2c1)n1nnc2ncc(-c3cnn(C)c3)nc21 [Savolitinib] + CC1(C)CCC(CN2CCN(c3ccc(C(=O)NS(=O)(=O)c4ccc(NCC5CCOCC5)c([N+](=O)[O-])c4)c(Oc4cnc5[nH]ccc5c4)c3)CC2)=C(c2ccc(Cl)cc2)C1 [Venetoclax] (first compound max 1 µM, 7x7, partner max 1 µM)	0.147	0.129	0.0877	-0.0115	-0.0349	-0.0457	0.0324	-0.024	-0.0603	0.0096	-0.0192	-0.0804	-0.0725	-0.0048	-0.0176	-0.0357	-0.0679	-0.0423	-0.095	-0.107
C[C@@H](c1ccc2nccn2c1)n1nnc2ncc(-c3cnn(C)c3)nc21 [Savolitinib] + Cc1c2c(nn1C)CSCc1cc(n(C)n1)CSc1cc(c3ccccc3c1)OCCCc1c(C(=O)O)n(C)c3c-2c(Cl)ccc13 [AZD5991] (first compound max 1 µM, 7x7, partner max 1 µM)	0.179	0.284	0.112	-0.0291	-0.0656	-0.0216	-0.0413	-0.0474	-0.0658	-0.0133	-0.0369	-0.0387	-0.0372	-0.0034	-0.0541	-0.0335	-0.0372	-0.0541	-0.0595	-0.0687
Cn1cnc2c(F)c(Nc3ccc(Br)cc3Cl)c(C(=O)NOCCO)cc21 [Selumetinib] + C=CCn1c(=O)c2cnc(Nc3ccc(N4CCN(C)CC4)cc3)nc2n1-c1cccc(C(C)(C)O)n1 [AZD1775] (first compound max 10 µM, partner max 1 µM)	0.275	0.452	0.326	0.0147	0.0095	-0.0332	-0.0124	-0.0694	0.004	-0.0725	-0.0424	-0.0502	-0.0886	0.0359	-0.0164	0.0083	-0.0115	-0.0448	-0.125	-0.0284
